# How the values were obtained:
# human brain glioma = experiment: Inhibitory effect of chlorogenic acid on transplanted glioma in mice (tumor weight); format: in vivo; conditions: 15 d; for Tumor weight: x ± s
# Method: (1) Model establishment 50 mice were divided into 5 groups, 10 mice for each group. The solution of brain glioblastoma cell lines was suitably diluted, and inoculated in cortex of left temporal lobe of mice in five groups, respectively.
# (2) Administration and intervention After inoculated for 24 h, five groups of mice were administrated by intraperitoneal injection. […] (3) Measuring inhibitory rate On the last day, administration was ceased, and all mice were sacrificed. Mice were dissected, and tissue of tumor was removed and weighed. Inhibitory Rate=(the Mean Tumor Weight of Control Group−the Mean Tumor Weight of Treatment Group)/the Mean Tumor Weight of Control Group×100%. (4) Statistical method The data were presented as mean±standard deviation (x±s), and statistical analysis was performed using SPSS15.0 software, and p<0.05 was considered to be a statistically significant difference. 3. Results
# [1] = test system: human brain oligodendroglioma cells; experiment: Inhibitory effect of chlorogenic acid on proliferation of primary culture human brain oligodendroglioma cells (MTT method / WST-1); format: cell-based; conditions: 48 h
# C6 glioma cells = experiment: In vitro inhibitory effect against C6 glioma cells by MTT method; format: cell-based, rat; conditions: 48 h; for OD values 1: replicate 1; for OD values 2: replicate 2; for OD values 3: replicate 3
# Method: (§1) 3. Cell line: C6 rat glioma cell lines for experiment is provided by Key Laboratory of Transplant Engineering and Immunology, Ministry of health, West China Hospital, Sichuan University.
# (§2) (1) Cells, growing in serum-containing medium and serum-free medium and presenting exponential growth phase, were taken out, and digested with pancreatin, to form single cells. Tumor cells were still seeded in serum-containing medium, while tumor stem cells were seeded in serum-free medium. Their concentrations were both adjusted to 2.0×10^5/ml, and cells were seeded in 96 well plate, 100 μl for each well. Amongst, four groups were experimental groups, and one group was negative control; the medium without cells was used as blank control, and each group had five repeated wells. Culture was carried out in an incubator at 37° C. with 5% CO2 and saturated humidity for one night. When seeding in 96 well plate, peripheral wells were not used to avoid the edge effect.
# (§3) (2) Next day after inoculation, cells attached before administration was carried out and static culture was kept for 48 h.
# (§4) (3) Wells for normal control group of tumor cells were included, and the wells were not treated with drug, and only equal amount (100 μl) of complete medium was added. Experiment on normal control group was performed, together with above three groups.
# (§5) (4) The culture was continued under 5% CO2 at 37° C., and after culturing for 48 h, cells were placed under inverted microscope for observation and taking a picture.
# (§6) (5) On sterile bench board, 20 μL 0.5% MTT was added to each well, and the culture was continued for 4 h. At 37° C., the culture was stood for overnight (same time for each group), then OD values were tested using microplate reader, while the absorbance of each well was measured at […].
# (§7) (6) Calculating inhibitory rate of cell growth Formula: Inhibitory rate of cell growth IR (%)=1−(OD value of cells in experimental group/OD value of cells in control group)×100%. (III) Statistical Analysis
# C6 glioma stem cells = experiment: In vitro inhibitory effect against C6 glioma stem cells by MTT method; format: cell-based, rat; conditions: 48 h; for OD values 1: replicate 1; for OD values 2: replicate 2; for OD values 3: replicate 3
# Method: as §1
# (1) C6 cells were seeded in traditional serum medium and sub-cultured in culture bottle. Cells in exponential phase of growth were washed with PBS solution, digested with 0.25% trypsin, and pipetted by self-made pasteur pipette, to form single cells. Cells were resuspended in SFM, stained with trypan blue, and counted. Cells were seeded in culture bottle with a bottom area of 25 cm^2 at a concentration of 1×10^5/well, and placed in an incubator at 37° C. with 5% CO2 and saturated humidity for culture.
# The medium was sucked out and centrifuged before half of old medium was removed, then centrifuged at 800 rpm/min for 5 min. The supernatant was discarded. Cells are resuspended in SFM, and gentle pipette with self-made pasteur pipette was repeated, for dissociating cell dumps into single cells. In a ratio of 1:2 or 1:3, cells were seeded in culture bottles with a bottom area of 25 cm^2, and diluted with SFM to 6 ml; alternatively, at the same concentration, cells were seeded in 6 well plate. To each well, was added 2.5 ml SFM, and continued culturing in an incubator at 37° C. with 5% CO2 and saturated humidity.
# as §2, with “Amongst, four groups were experimental groups, and one group was negative control; the medium without cells was used as blank control, and each group had five repeated wells.” left out
# as §3, §4, §5, §6, §7
# [2] = High dose 40 mg/kg intraperitoneal
# [3] = Low dose 10 mg/kg intraperitoneal
# [4] = Rattus norvegicus, 16 μg/ml, read-out: Inhibitory rate (%)
# [5] = Rattus norvegicus, 32 μg/ml, read-out: Inhibitory rate (%)
# [6] = Rattus norvegicus, 64 μg/ml, read-out: Inhibitory rate (%)
# [7] = Rattus norvegicus, 128 μg/ml, read-out: Inhibitory rate (%)
smiles,measurement,setting,value
"CC(=O)O[C@@]12CO[C@@H]1C[C@H](O)[C@@]1(C)C(=O)[C@H](O)C3=C(C)[C@@H](OC(=O)[C@H](O)[C@@H](NC(=O)OC(C)(C)C)c4ccccc4)C[C@@](O)([C@@H](OC(=O)c4ccccc4)[C@H]21)C3(C)C [Positive control group, docetaxel, reference compound]",Inhibitory rate (%),human brain glioma; 5 mg/kg intraperitoneal,73.3%
same,Tumor weight,human brain glioma; 5 mg/kg intraperitoneal,0.389 ± 0.305 g
O=C(/C=C/c1ccc(O)c(O)c1)O[C@@H]1C[C@](O)(C(=O)O)C[C@@H](O)[C@H]1O [chlorogenic acid],Cellular morphology under inverted microscope,[1]; compared with normal control group,obvious decrease of cell numbers
same,inhibition at 32 µg/mL,"[1]; Homo sapiens, 32 μg/ml, read-out: Inhibitory rate (%)",39.9%
same,inhibition at 64 µg/mL,"[1]; Homo sapiens, 64 μg/ml, read-out: Inhibitory rate (%)",44.9%
same,inhibition at 128 µg/mL,"[1]; Homo sapiens, 128 μg/ml, read-out: Inhibitory rate (%)",60.4%
same,Inhibitory rate (%),human brain glioma; [2],60.58%
same,Tumor weight,human brain glioma; [2],0.529 ± 0.168 g
same,Inhibitory rate (%),human brain glioma; [3],48.51%
same,Tumor weight,human brain glioma; [3],0.690 ± 0.188 g
same,Inhibitory rate (%),human brain glioma; Middle dose 20 mg/kg intraperitoneal,69.92%
same,OD values mean,C6 glioma cells; 16 μg/ml,1.515
same,OD values 1,C6 glioma cells; 16 μg/ml,1.640
same,OD values 2,C6 glioma cells; 16 μg/ml,1.553
same,OD values 3,C6 glioma cells; 16 μg/ml,1.351
same,OD values mean,C6 glioma cells; 32 μg/ml,1.472
same,OD values 1,C6 glioma cells; 32 μg/ml,1.558
same,OD values 2,C6 glioma cells; 32 μg/ml,1.573
same,OD values 3,C6 glioma cells; 32 μg/ml,1.286
same,OD values mean,C6 glioma cells; 64 μg/ml,1.326
same,OD values 1,C6 glioma cells; 64 μg/ml,1.314
same,OD values 2,C6 glioma cells; 64 μg/ml,1.247
same,OD values 3,C6 glioma cells; 64 μg/ml,1.417
same,OD values mean,C6 glioma cells; 128 μg/ml,1.028
same,OD values 1,C6 glioma cells; 128 μg/ml,1.021
same,OD values 2,C6 glioma cells; 128 μg/ml,1.023
same,OD values 3,C6 glioma cells; 128 μg/ml,1.041
same,inhibition at 16 µg/mL,C6 glioma cells; [4],32.1%
same,inhibition at 32 µg/mL,C6 glioma cells; [5],34%
same,inhibition at 64 µg/mL,C6 glioma cells; [6],40.6%
same,inhibition at 128 µg/mL,C6 glioma cells; [7],53.9%
same,OD values mean,C6 glioma stem cells; 16 μg/ml,1.715
same,OD values 1,C6 glioma stem cells; 16 μg/ml,1.713
same,OD values 2,C6 glioma stem cells; 16 μg/ml,1.700
same,OD values 3,C6 glioma stem cells; 16 μg/ml,1.731
same,OD values mean,C6 glioma stem cells; 32 μg/ml,1.634
same,OD values 1,C6 glioma stem cells; 32 μg/ml,1.533
same,OD values 2,C6 glioma stem cells; 32 μg/ml,1.739
same,OD values 3,C6 glioma stem cells; 32 μg/ml,1.631
same,OD values mean,C6 glioma stem cells; 64 μg/ml,1.378
same,OD values 1,C6 glioma stem cells; 64 μg/ml,1.367
same,OD values 2,C6 glioma stem cells; 64 μg/ml,1.358
same,OD values 3,C6 glioma stem cells; 64 μg/ml,1.410
same,OD values mean,C6 glioma stem cells; 128 μg/ml,1.223
same,OD values 2,C6 glioma stem cells; 128 μg/ml,1.200
same,inhibition at 16 µg/mL,C6 glioma stem cells; [4],23.2%
same,inhibition at 32 µg/mL,C6 glioma stem cells; [5],26.8%
same,inhibition at 64 µg/mL,C6 glioma stem cells; [6],38.2%
same,inhibition at 128 µg/mL,C6 glioma stem cells; [7],45.2%

# Source: US10004713B2 (SICHUAN JIUZHANG BIOLOGICAL SCIENCE AND TECHNOLOGY CO., LTD, priority 2014, dated 2018)
